Source: publication PMC8808171, “Nonselective TRPC channel inhibition and suppression of aminoglycoside-induced premature termination codon readthrough by the small molecule AC1903” (The Journal of Biological Chemistry, 2022)

Assays:
JEB01 keratinocytes = assay: Measurement of intracellular G418 (gentamicin ELISA) in JEB01 keratinocytes; type: cell-based, human; settings: 150 μM AC1903 (Fig. 2F)
Procedure: (§1) Figure 2 Effect of AC1903 on PTC readthrough and G418 trafficking.A and B, DMS-114 (A) or TC-71 (B) cells were pretreated with indicated concentrations of AC1903 for 3 h followed by exposure to 400 μg/ml G418. After 3 h medium was replenished and at 24 h cell lysates were prepared and p53 levels were measured. C and E, DMS-114 (C) or JEB01 (E) cells were either left untreated or pretreated with 150 μM AC1903 for 3 h followed by exposure to indicated concentrations of G418 for another 3 h. At 24 h cell lysates were prepared and p53 (C) or Collagen XVII (E) levels were measured. In panels A–C, protein levels were measured by automated capillary electrophoresis Western analysis (using vinculin as loading control). In panel E, protein levels were measured by Western blot (using beta-actin as loading control). […] D, total intracellular levels of G418 were measured in the same lysates as in (C) (n = 5; data normalized to the highest response in each experiment; bars represent mean ± SD). F, total intracellular levels of G418 were measured in the same lysates as in (E) (n = 2; data normalized to the highest response in each experiment; bars represent mean ± SD). ∗ indicates statistically significant difference between samples according to one-way ANOVA (p < 0.05). […]

[1] = system: JEB01 keratinocytes (COL17A1 R688X); assay: G418-induced PTC readthrough (Collagen XVII, Western blot) in JEB01 keratinocytes; type: cell-based, human; settings: pretreatment 150 μM AC1903, increasing concentrations of G418 (Fig. 2E)
Procedure: as §1

In the case of c1ccc(Cn2c(NCc3ccco3)nc3ccccc32)cc1 [AC1903], the “intracellular G418 levels in cells exposed to AC1903” value (JEB01 keratinocytes) is reported as “significantly declined” and the “decline of full-length Collagen XVII” value [1] is reported as 45–80%.
